# Reference: US11390621B2, “Chiral indole compounds and their use” (ARIAGEN, INC., priority 2019, dated 2022)
# Where “and” joins values, the source holds several entries; their conditions need not be identical. Equal entries are not always repeated. Where two headings read alike, the source gives them in different places.
# Key:
# [1] = Hepatocyte intrinsic clearance assay (metabolic stability), rat hepatocytes; type: in vitro ADME; conditions: rat, cryopreserved hepatocytes, Rat Hepatocytes, 1 μM test compound
# Outline: (§1)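 Cryopreserved pooled hepatocytes (1×10^6 cells/mL final) incubated with 1 μM compound at 37 °C, 5% CO2; samples at 0–120 min quenched in acetonitrile, analysed by LC-MS in duplicate. t1/2 and CLint from ln(% remaining) vs time slope; CLH via well-stirred liver model (fu=1) and EH derived from it.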
# [2] = system: rat hepatocytes; experiment: as above; type: in vitro ADME
# Outline: as §1
# [3] = target: T1, CYP3A4 (Homo sapiens, UniProt P08684); experiment: CYP profiling: human liver microsomes with CYP3A4 inhibitor ketoconazole; type: in vitro ADME; set-up: % Compound Metabolized at 30 min, CYP3A4 Inhibitor: concentration or dose not given beside the values; conditions: HLMs
# T1 construct: from tissue; host or cells: human liver microsomes
# T1 sequence (P08684 whole entry): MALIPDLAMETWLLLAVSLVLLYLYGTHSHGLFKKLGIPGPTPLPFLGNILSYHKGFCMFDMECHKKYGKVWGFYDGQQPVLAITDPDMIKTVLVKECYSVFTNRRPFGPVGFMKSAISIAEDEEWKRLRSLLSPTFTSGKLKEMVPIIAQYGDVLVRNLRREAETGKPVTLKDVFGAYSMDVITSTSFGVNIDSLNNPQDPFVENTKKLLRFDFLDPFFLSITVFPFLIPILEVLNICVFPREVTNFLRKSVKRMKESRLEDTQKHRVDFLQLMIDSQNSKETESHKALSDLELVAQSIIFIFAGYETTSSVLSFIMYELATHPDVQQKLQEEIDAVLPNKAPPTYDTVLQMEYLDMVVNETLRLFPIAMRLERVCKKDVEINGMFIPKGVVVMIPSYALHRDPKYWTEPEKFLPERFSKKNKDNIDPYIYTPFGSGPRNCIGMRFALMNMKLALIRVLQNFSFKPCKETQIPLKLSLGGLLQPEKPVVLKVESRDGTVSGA
# Experimental: In order to investigate the contributions of CYP1A2 and CYP3A4 to the metabolism of the compounds of the present disclosure, human liver microsomes were incubated with the test compounds for 30 minutes in the presence of selective chemical inhibitors furafylline (1A2) and ketoconazole (3A4).
# [4] = In vivo pharmacokinetic studies in rats; set-up: species or system SD rats; conditions: rats; for AUC(0-t): read-out: AUClast
# Outline: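 Mice and rats (N=3/group) dosed IV at 2 mg/kg in DMSO or PO at 10, 30 or 40 mg/kg in PEG400/Tween 80 50/50; PEG400/Kolliphor HS15/oleic acid 45/45/10 used for one repeat-dose rat study. Repeat dosing in rats was PO 10 mg/kg QD for 5 days. Plasma sampled pre-dose to 24 h post-dose, measured by HPLC.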
# [5] = Hepatocyte intrinsic clearance assay (metabolic stability), human hepatocytes; type: in vitro ADME; conditions: male, human, cryopreserved pooled hepatocytes, Human Hepatocytes, 1 μM test compound
# Outline: as §1
# [6] = system: human hepatocytes; experiment: as above; type: in vitro ADME; conditions: Human Hepatocytes; well stirred liver model, fu=1
# Outline: as §1
# [7] = SD, rat, plasma, po, 10 mg/kg, PO 10 mg/kg repeat dose, Day 1, Mean of 3 animals
# [8] = Sprague-Dawley (SD), rat, plasma, po, 10 mg/kg, PO 10 mg/kg repeat dose, Day 1, individual animals (ID 4, 5, 6)
# [9] = Sprague-Dawley (SD), rat, plasma, po, 10 mg/kg, PO 10 mg/kg repeat dose, Day 5, Mean of 3 animals
# [10] = PO 10 mg/kg repeat dose, Day 1, individual animals (ID 4, 5, 6), 10 mg/kg
# [11] = PO 10 mg/kg repeat dose, Day 5, individual animals (ID 4, 5, 6), 10 mg/kg
structure (smiles),measurement,setting,value
"CC(C)(N)c1csc(C(=O)c2c[nH]c3cc(F)ccc23)n1 [ARI-226, (4-(2-aminopropan-2-yl)thiazol-2-yl)(6-fluoro-1H-indol-3-yl)methanone]",half-life at 1 μM,[1],1.8 h
same,hepatocyte CLint at 1 μM,[1],6.54 µL/min/1e6 cells
same,EH (hepatic extraction ratio),"[2]; Rat Hepatocytes, well stirred liver model, fu=1",30.4%
same,CLint lower than that of ARI-164 (fold),[2]; rat hepatocytes,slightly lower
same,"% Compound Metabolized at 30 min, CYP3A4 Inhibitor",[3],11%
same,"% Inhibition Relative to Negative Control, 3A4",[3]; 30 min,None
same,AUC(0-inf),[4]; [7],832 ng·h/mL
same,Cmax at 1 day,[4]; [7],112 ng/mL
same,MRT inf at 1 day,[4]; [7],5.81 h
same,half-life at 1 day,[4]; [7],2.28 h
same,AUC(0-t),[4]; [7],831 ng·h/mL
same,Tmax at 1 day,"[4]; SD, rat, plasma, po, 10 mg/kg, PO 10 mg/kg repeat dose, Day 1, Mean of 3 animals, read-out: Tmax",4 h
same,Tmax at 5 days,"[4]; SD, rat, plasma, po, 10 mg/kg, PO 10 mg/kg repeat dose, Day 5, individual animals (ID 4, 5, 6)",1 h
same,MRT inf,[4]; [8],5.23 h
same,half-life,[4]; [8],2.55 h
same,Tmax,"[4]; Sprague-Dawley (SD), rat, plasma, po, 10 mg/kg, PO 10 mg/kg repeat dose, Day 1, individual animals (ID 4, 5, 6), read-out: Tmax",4 h
same,AUC(0-inf),[4]; [9],38.7 ng·h/mL
same,MRT inf,[4]; [9],3.01 h
same,half-life,[4]; [9],1.64 h
same,AUC(0-t),[4]; [9],35.7 ng·h/mL
same,Cmax,"[4]; Sprague-Dawley (SD), rat, plasma, po, 10 mg/kg, PO 10 mg/kg repeat dose, Day 5, Mean of 3 animals, read-out: Cmax",9.78 ng/mL
same,Tmax,"[4]; Sprague-Dawley (SD), rat, plasma, po, 10 mg/kg, PO 10 mg/kg repeat dose, Day 5, Mean of 3 animals, read-out: Tmax",1.67 h
same,half-life,"[4]; Sprague-Dawley (SD), rat, plasma, po, 10 mg/kg, PO 10 mg/kg repeat dose, Day 5, individual animals (ID 4, 5, 6)",1.05 h
same,behaviour of exposure after 5 days of repeat dosing (in words),[4]; 10 mg/kg PO QD for 5 days,increased elimination
same,MRTIast,"[4]; PO 10 mg/kg repeat dose, Day 1, Mean of 3 animals",5.78 h
same,AUCinf,[4]; [10],1280 ng·h/mL and 253 ng·h/mL and 963 ng·h/mL
same,AUClast,[4]; [10],1280 ng·h/mL and 253 ng·h/mL and 963 ng·h/mL
same,Cmax,[4]; [10],188 ng/mL and 28.4 ng/mL and 119 ng/mL
same,MRTIast,[4]; [10],5.18 h and 5.96 h and 6.21 h
same,MRTinf,[4]; [10],5.99 h and 6.22 h
same,T1/2,[4]; [10],2.39 h and 1.89 h
same,MRTIast,"[4]; PO 10 mg/kg repeat dose, Day 5, Mean of 3 animals",2.49 h
same,AUCinf,[4]; [11],14.2 ng·h/mL and 54.7 ng·h/mL and 47.3 ng·h/mL
same,AUClast,[4]; [11],13.0 ng·h/mL and 50.9 ng·h/mL and 43.2 ng·h/mL
same,Cmax,[4]; [11],5.33 ng/mL and 13.2 ng/mL and 10.8 ng/mL
same,MRTIast,[4]; [11],1.56 h and 2.76 h and 3.15 h
same,MRTinf,[4]; [11],1.89 h and 3.31 h and 3.82 h
same,T1/2,[4]; [11],1.87 h and 2.01 h
same,Tmax,[4]; [11],2 h
same,half-life at 1 μM,[5],3 h
same,hepatocyte CLint at 1 μM,[5],3.85 µL/min/1e6 cells
same,EH (hepatic extraction ratio),[6],15.8%
